Measurements published in patent publication US20260258420A1, “COMPOSITIONS AND METHODS FOR THE TREATMENT OF HUMAN PAPILLOMAVIRUS-DRIVEN CANCERS” (priority 2023, published 2026).

Tests used:
Format in all cases: cell-based
[1] = system: 16 HPV-positive and 17 HPV-negative HNSCC and cervical squamous cancer cell lines; experiment: High-throughput drug screen (HTDS), whole panel, comparison by HPV status; settings: for efficacy in HPV-positive vs HPV-negative cell lines: AOC_LD as a dichotomous variable; for odds ratio: sensitivity in HPV-positive vs HPV-negative cell lines; for cell death: at concentrations known to inhibit mTOR
Experimental: (§1) The concordance correlation coefficient was computed to assess the reproducibility of the normalized growth rates of the 2 replicates. […] A chi-square test was applied to compare drug classification and the cluster membership. The Fisher exact test was applied to compare mutations status (wild-type and mutant) and drugs' response data (sensitive and resistant).
(§2) The effects of 864 unique drugs from 51 classes was tested in 16 HPV-positive and 17 HPV-negative HNSCC and cervical squamous cancer cell lines (Table 2) that were characterized previously (Kaiu, et al., Oncotarget 2017; 8(49):86369-83).

[2] = system: 17 HPV-negative HNSCC and cervical squamous cancer cell lines; experiment: High-throughput drug screen (HTDS), cell death by AOC_LD, HPV-negative cell lines; settings: for HPV negative Resistant (number of cell lines): resistant = AOC_LD 0; for HPV negative Sensitive (number of cell lines): sensitive = AOC_LD greater than 0
Experimental: as §1, §2

[3] = system: 16 HPV-positive HNSCC and cervical squamous cancer cell lines; experiment: High-throughput drug screen (HTDS), cell death by AOC_LD, HPV-positive cell lines; settings: for HPV positive Resistant (number of cell lines): resistant = AOC_LD 0; for HPV positive Sensitive (number of cell lines): sensitive = AOC_LD greater than 0
Experimental: as §1, §2

Compound	efficacy in HPV-positive vs HPV-negative cell lines [1]	HPV negative Resistant (number of cell lines) [2]	HPV negative Sensitive (number of cell lines) [2]	HPV positive Resistant (number of cell lines) [3]	HPV positive Sensitive (number of cell lines) [3]	odds ratio [1]	cell death [1]
Cc1csc(-c2nnc(Nc3ccc(Oc4ncccc4-c4ccnc(N)n4)cc3)c3ccccc23)c1 [AMG900]	tended to be more effective in HPV-positive cell lines	–	–	–	–	–	–
COc1cc(NS(C)(=O)=O)ccc1Nc1c2ccccc2nc2ccccc12 [AMSACRINE]	–	15	2	5	11	–	–
Clc1ccc(C2(c3ccc(-c4cn[nH]c4)cc3)CCNCC2)cc1 [AT7867]	–	17	0	12	4	Inf	–
O=C(Nc1c[nH]nc1-c1nc2ccc(CN3CCOCC3)cc2[nH]1)NC1CC1 [AT9283]	–	10	7	3	13	–	–
CNC(=O)c1ccccc1Sc1ccc2c(/C=C/c3ccccn3)n[nH]c2c1 [AXITINIB]	–	16	1	8	8	–	–
COc1ccc(-c2ccc3c(N4CCOC[C@@H]4C)nc(N4CCOC[C@@H]4C)nc3n2)cc1CO [AZD8055]	–	17	0	11	5	Inf	–
O=C(Nc1cccc(Nc2ncc(Br)c(NCCc3cnc[nH]3)n2)c1)N1CCCC1 [BX912]	–	16	1	8	8	14.66	–
CC(C)C[C@H](NC(=O)[C@H](CCc1ccccc1)NC(=O)CN1CCOCC1)C(=O)N[C@@H](Cc1ccccc1)C(=O)N[C@@H](CC(C)C)C(=O)[C@@]1(C)CO1 [CARFILZOMIB]	–	5	12	0	16	Inf	–
CN(C)c1ccc(-c2nc3ncc(Cl)c(N4CCN(CC(=O)Nc5nccs5)CC4)c3[nH]2)cc1 [CCT129202]	tended to be more effective in HPV-positive cell lines	–	–	–	–	–	–
Cc1cc(CN2CCN(c3c(Br)cnc4nc(-c5ccc(N6CCN(C)CC6)cc5)[nH]c34)CC2)no1 [CCT137690]	tended to be more effective in HPV-positive cell lines	–	–	–	–	–	–
COc1cc2c(c(OC)c1OC)-c1ccc(OC)c(=O)cc1[C@@H](NC(C)=O)CC2 [COLCHICINE]	–	–	10	–	15	–	–
Cc1nc(N)sc1-c1ccnc(Nc2ccc(N3CCOCC3)cc2)n1 [CYC116]	tended to be more effective in HPV-positive cell lines	15	2	7	9	–	–
CN1CCN(c2ccc3nc(-c4c(N)c5c(F)cccc5[nH]c4=O)[nH]c3c2)CC1 [DOVITINIB]	–	16	1	10	6	–	–
COc1cc([C@@H]2c3cc4c(cc3[C@@H](O[C@@H]3O[C@@H]5CO[C@@H](C)O[C@H]5[C@H](O)[C@H]3O)[C@H]3COC(=O)[C@H]23)OCO4)cc(OC)c1O [ETOPOSIDE]	–	15	2	7	9	–	–
Nc1nc(F)nc2c1ncn2[C@@H]1O[C@H](CO)[C@@H](O)[C@@H]1O [FLUDARABINE]	–	6	11	13	3	–	–
CCn1cc(-c2ccnc3[nH]c(-c4cccc(CN(C)C)c4)cc23)c(-c2ccc(NC(=O)N(C)C)cc2)n1 [GSK1070916]	tended to be more effective in HPV-positive cell lines	12	5	4	12	–	–
Nc1nc(Nc2ccc(S(N)(=O)=O)cc2)nn1C(=O)c1c(F)cccc1F [JNJ7706621]	more effective in HPV-positive than in HPV-negative cell lines	11	6	4	12	–	–

Compound	efficacy in HPV-positive vs HPV-negative cell lines [1]	HPV negative Resistant (number of cell lines) [2]	HPV negative Sensitive (number of cell lines) [2]	HPV positive Resistant (number of cell lines) [3]	HPV positive Sensitive (number of cell lines) [3]	odds ratio [1]	cell death [1]
CCCCCCOC(=O)[C@]1(O)C[C@@H]2O[C@@]1(C)n1c3ccccc3c3c4c(c5c6ccccc6n2c5c31)C(=O)NC4 [KT5720]	–	17	0	12	4	Inf	–
O=C(O)[C@]1(Cc2cccc(Nc3nccs3)n2)CC[C@@H](Oc2cccc(Cl)c2F)CC1 [MK5108]	tended to be more effective in HPV-positive cell lines	–	–	–	–	–	–
O=C(O)c1ccc(Nc2ncc3c(n2)-c2ccc(Cl)cc2C(c2c(F)cccc2F)=NC3)cc1 [MLN8054]	tended to be more effective in HPV-positive cell lines	–	–	–	–	–	–
COC(=O)c1ccc2c(c1)NC(=O)/C2=C(\Nc1ccc(N(C)C(=O)CN2CCN(C)CC2)cc1)c1ccccc1 [NINTEDANIB]	–	17	0	11	5	Inf	–
CC(=O)NCC(=O)N1[C@@H]2CC[C@H]1c1ccc(Nc3ncc(C(F)(F)F)c(NC4CCC4)n3)cc12 [PF03814735]	tended to be more effective in HPV-positive cell lines	15	2	8	8	7.02	–
CCc1cccc(CC)c1NC(=O)N1Cc2n[nH]c(NC(=O)c3ccc(N4CCN(C)CC4)cc3)c2C1 [PHA680632]	tended to be more effective in HPV-positive cell lines	–	–	–	–	–	–
O=C(Nc1cccc(Cl)c1)Nc1ncc(CCNc2ncnc3ccsc23)s1 [SNS314]	tended to be more effective in HPV-positive cell lines	15	2	8	8	–	–
CCS(=O)(=O)c1cccc(-c2cc(C(=O)NC3CCN(C)CC3)c(C)c3[nH]c4ncc(C)cc4c23)c1 [TAK901]	tended to be more effective in HPV-positive cell lines	–	–	–	–	–	–
Cc1cc(Nc2cc(N3CCN(C)CC3)nc(Sc3ccc(NC(=O)C4CC4)cc3)n2)[nH]n1 [TOZASERTIB, tozasertib]	tended to be more effective in HPV-positive cell lines	15	2	7	9	–	–
COc1cc2c(Nc3ccc(NC(=O)c4ccccc4)cc3)ncnc2cc1OCCCN1CCOCC1 [ZM447439]	tended to be more effective in HPV-positive cell lines	14	3	6	10	7.24	–
CO[C@@H](C(=O)N1Cc2n[nH]c(NC(=O)c3ccc(N4CCN(C)CC4)cc3)c2C1)c1ccccc1 [danusertib]	tended to be more effective in HPV-positive cell lines	–	–	–	–	–	–
CO[C@H]1C[C@@H]2CC[C@@H](C)[C@@](O)(O2)C(=O)C(=O)N2CCCC[C@H]2C(=O)O[C@H]([C@H](C)C[C@@H]2CC[C@@H](OCCO)[C@H](OC)C2)CC(=O)[C@H](C)/C=C(\C)[C@@H](O)[C@@H](OC)C(=O)[C@H](C)C[C@H](C)/C=C/C=C/C=C/1C [everolimus]	–	–	–	–	–	–	caused cell death only in a single cell line
COc1ccc([C@@H]2CC(=O)c3c(O)cc(O[C@@H]4O[C@H](CO[C@@H]5O[C@@H](C)[C@H](O)[C@@H](O)[C@H]5O)[C@@H](O)[C@H](O)[C@H]4O)cc3O2)cc1O [hesperidin]	more effective in HPV-positive than in HPV-negative cell lines	–	–	–	–	–	–
CO[C@H]1C[C@@H]2CC[C@@H](C)[C@@](O)(O2)C(=O)C(=O)N2CCCC[C@H]2C(=O)O[C@H]([C@H](C)C[C@@H]2CC[C@@H](OP(C)(C)=O)[C@H](OC)C2)CC(=O)[C@H](C)/C=C(\C)[C@@H](O)[C@@H](OC)C(=O)[C@H](C)C[C@H](C)/C=C/C=C/C=C/1C [ridaforolimus]	–	–	–	–	–	–	caused cell death only in a single cell line
BLEOMYCIN	–	13	4	6	10	5.12	–
WYE354	–	16	1	10	6	8.98	–
